4 compounds from ChEMBL document CHEMBL1201862, “PubChem BioAssay data set” (2004) can be followed below.

Assay in all cases: NCI-60 cell line screen, 48 h
In experiment [1] the test system is 786-0.
The test system of experiment [2] is A549.
For experiment [3], the system named is CCRF-CEM.
Experiment [4] deals with EKVX.
The test system of experiment [5] is HL-60.
The subject of experiment [6] is K562.
Experiment [7] deals with MDA-MB-231.
Experiment [8] deals with MDA-MB-435.
Experiment [9] has as its system MDA-N.
The subject of experiment [10] is NCI-H460.
The subject of experiment [11] is NCI/ADR-RES.
Experiment [12] deals with OVCAR-3.
Experiment [13] has as its system OVCAR-5.
Experiment [14] relates to RXF 393.
Experiment [15] concerns SF-268.
Experiment [16] deals with SK-MEL-28.
Experiment [17] concerns SNB-75.
In experiment [18] the test system is SR.
Experiment [19] has as its system UACC-62.
Experiment [20] relates to UO-31.

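In this assay, cells in 96-well plates receive the compound at five concentrations for 48 hours. Endpoints are linearly interpolated between the surrounding concentrations. At the GI50, growth is halved.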 Active and inactive are the calls of the source. Cut-off read from the data, not from the text of the source: active = GI50 up to about 1.1 µM and inactive = higher. Some results are limits rather than exact numbers.

Take `C=C1C(=O)O[C@H]2[C@H](OC(C)=O)[C@@H](C)CCC/C(C)=C/CC[C@@]3(C)O[C@@H]3C[C@@H]12`: the GI50 was 1.6 µM (inactive) in [1]; 7.35 µM (inactive) in experiment [2]; 0.661 µM (active) in experiment [3]; 3.42 µM (inactive) in experiment [4]; 0.398 µM (active) in experiment [5]; 3.03 µM (inactive) in [6]. Moreover, the GI50 in experiment [7] is 4.08 µM (inactive); in [8] it was 3.24 µM (inactive); in experiment [9] it was 2.94 µM (inactive); in [10], 5.26 µM (inactive); in experiment [11], 1.59 µM (inactive); in experiment [12], 4.97 µM (inactive). For the same compound, the GI50 in [13] was 8.26 µM (inactive); in [14] it was 1.87 µM (inactive); in experiment [15] it was 5.62 µM (inactive); in experiment [16], 4.72 µM (inactive); in experiment [17] it was 6.21 µM (inactive); in experiment [18], 1.86 µM (inactive). The GI50 in [19] is 4.11 µM (inactive); in experiment [20], 2.9 µM (inactive).

Turning to `O=c1c2sc(=S)n(-c3ccc(F)cc3)c2ncn1/N=C/c1ccc(F)cc1F`, the GI50 was 17.2 µM (inactive) in [1]; 46 µM (inactive) in experiment [2]; 63.7 µM (inactive) in experiment [3]; 16.6 µM (inactive) in experiment [4]; 22.8 µM (inactive) in experiment [5]; > 100 µM (inactive) in experiment [6]. The GI50 in [7] is 21.1 µM (inactive); in [8] it was 83.9 µM (inactive); in [9], > 100 µM (inactive); in experiment [10] it was 39.2 µM (inactive); in [11], 33 µM (inactive); in [12], 30.1 µM (inactive). Also, the GI50 in [13] is 32.2 µM (inactive); in experiment [14] it was 15.8 µM (inactive); in [15], 18.7 µM (inactive); in [16], 29.8 µM (inactive); in experiment [17], 16 µM (inactive); in experiment [18] it was 40.1 µM (inactive). The GI50 in experiment [19] was 27.7 µM (inactive); in experiment [20], 24.9 µM (inactive).

As to `CC1=NN(C(=O)c2ccccc2O)C(=O)/C1=C/c1ccco1`, the GI50 in experiment [1] is 1.64 µM (inactive); in experiment [2], 7.19 µM (inactive); in experiment [3], 1.61 µM (inactive); in [4], 3.06 µM (inactive); in experiment [5] it was 1.49 µM (inactive); in experiment [6] it was 2.64 µM (inactive). Moreover, the GI50 in [7] was 15.1 µM (inactive); in [8] it was 0.581 µM (active); in experiment [9], 0.53 µM (active); in experiment [10], 1.59 µM (inactive); in experiment [11] it was 4.44 µM (inactive); in experiment [12], 0.65 µM (active). Further, the GI50 was 9.18 µM (inactive) in experiment [13]; 0.171 µM (active) in experiment [14]; 1.11 µM (active) in [15]; 14.6 µM (inactive) in [16]; 3.02 µM (inactive) in experiment [17]; 2.94 µM (inactive) in experiment [18]. Besides, the values for the GI50 in experiment [19] and in [20] were 0.436 µM (active) and 0.404 µM (active), respectively.

Consider `O=C1Nc2ccccc2/C1=N/Nc1ccccc1[N+](=O)[O-]`, for which the GI50 in experiment [1] is 14.5 µM (inactive); in experiment [2], 34.4 µM (inactive); in experiment [3], 91.6 µM (inactive); in [4] it was 0.706 µM (active); in [5] it was > 100 µM (inactive); in [6], 66.5 µM (inactive). Further, the GI50 in experiment [7] is 28.4 µM (inactive); in [8] it was > 100 µM (inactive); in experiment [9], > 100 µM (inactive); in experiment [10], 19.9 µM (inactive); in [11], 17 µM (inactive); in [12], 10.5 µM (inactive). The GI50 in experiment [13] was 38.3 µM (inactive); in experiment [14], 35.6 µM (inactive); in experiment [15] it was 10 µM (inactive); in experiment [16] it was 75.9 µM (inactive); in [17], 16.5 µM (inactive); in [18] it was 6.62 µM (inactive). Further, the GI50 in experiment [19] is 63.8 µM (inactive); in experiment [20], 24.3 µM (inactive).
